Columns and labels:
GM-CSF induced pSTAT5 = GM-CSF induced pSTAT5 assay in CellSensor irf1-bla TF-1 cells; assay type: cell-based; conditions: Homo sapiens, GM-CSF 1 ng/mL, read-out: Cellular selectivity (GM-CSF induced pSTAT5)
Procedure: The CellSensor irfl-bla TF-1 cell line (LifeTechnologies, K1657) was cultured in RPMI 1640 Medium (Invitrogen 72400-047), 10% Fetal Bovine Serum (Invitrogen, 26400044), 1 mM Sodium pyruvate (Life Technologies, 11360039), 1% MEM NEAA (Life Technologies, 11140-035), 2 ng/ml of human recombinant GM-CSF (Fisher, PHC2015), 1% Penicillin/Streptomycin (Life Technologies, 15140-122) and 5 µg/ml of Blasticidin (ThermoFisher, A1113903).
The cell line was seeded in a T75 flask at 13×10^6 cells/50 mL in starvation medium (Opti-MEM™ I Reduced Serum Medium, no phenol red (Life Technologies, 11058-021), 1 mM Na pyruvate (Life Technologies, 11360039), 1% MEM NEAA (Life Technologies, 11140-035), and 1% Penicillin/Streptomycin (Life Technologies, 15140-122)) for 16 hours at 37° C. under 5% CO2 the day before the assay.
For the assay, CellSensor irfl-bla TF-1 cells were seeded at 30 000 cells/32 μL (starvation medium)/well in a 384-well plate.
Compounds were added on the cells in 4 μL (starvation medium)/well at 10× the final concentration. They were incubated for 30 minutes at 37° C.
Human recombinant carrier-free GM-CSF (ThermoFisher, ref PHC2015) was added to the wells in 4 μL (starvation medium)/well at 10×. The final concentration was 1 ng/mL. Control wells without GM-CSF treatment were added. Plates were incubated for 5 hours at 37° C.
6× LiveBlazer-FRET substrate (Invitrogen, K1085) was added to the wells at 8 μL/well. The substrate was prepared shortly before use by mixing 6 μL of solution A and 60 μL of solution B to 934 μL of solution C. Plates were incubated for 2.5 hours at room temperature in the dark. The plates were read on an Envision (Perkin Elmer) with an excitation at a wavelength of 409 nm and two wavelengths for the emission 520 nm and 450 nm. The ratio between the […] emission was used to calculate the IC50s.
The IC50 for the inhibition of pSTAT5 was calculated with the XLfit software using the 4 Parameter Logistic Model or Sigmoidal Dose-Response Model (model 205).

[1] = Brain exposure pharmacokinetics in rats; assay type: in vivo; conditions: male Sprague Dawley rats, oral gavage 10 mg/kg
Procedure: The brain exposure of exemplary compounds, e.g., 1, 2, and 4 were evaluated in male Sprague Dawley rats after oral gavage administration at 10 mg/kg. The formulation was 5% DMSO+10% PEG400 in saline. Rats were fasted overnight with food returned 4 hours post-dose. CSF was collected by direct needle puncture into the cisterna magna.
For both rat and mouse studies, brain tissue was washed with 3 volumes of saline prior to homogenization. Brain tissue was homogenized with 3 volumes (v/w) of phosphate buffered saline. Plasma, brain homogenate, and CSF samples (rat only) were analyzed by LC-MS/MS and the concentration of test compound at each time point was determined by linear regression.
Pharmacokinetic parameters were calculated from the plasma, brain, and CSF concentrations by non-compartmental modeling using WinNonlin 8.2.

Caco-2 permeability = assay type: in vitro ADME; conditions: human, Caco-2
Procedure: (§1) Caco-2 cells were cultured for 21 days on a Transwell 96-well plate. The basal plate for changing the media was prepared by filling all wells of a 96-well sterile plate with 200 μL of Caco-2 media and placing it into an incubator. The apical section of the plate was lifted and lowered onto an empty basal plate. From the apical compartments containing 115 μL of cell media, 85 μL of the cell culture media was aspirated and replaced with 85 μL of fresh cell culture media. The basal plate was removed from the incubator and placed into a cell culture hood, while the apical section of the plate was returned to the basal plate and placed into the incubator.
(§2) Cells were fed one or two days prior to assay. A fresh basal plate was prepared by adding 200 μL of cell media to all wells and placing the plate in an incubator. The plate was then transferred from the incubator to the cell culture hood, where the apical compartment was lifted and placed onto an empty basal plate. 85 μL of media was removed from the apical wells and replaced with 85 μL of fresh media. The apical compartment of the plate was transferred to a basal plate and returned to the incubator.
(§3) On the day of the assay, 1 mL of 500-fold diluted compound solution was prepared in transport buffer. 62.5 μl of the prepared solution was used for the apical compartment, while 130 μl was used in the basal compartment. TEER measurements of the plate were taken. The dilutions were incubated for 15 minutes at 37° C. Basal assay plates were prepared by filling A→B wells of a 96-well sterile plate with 250 μl of transport buffer or B→A wells with 130 μl of diluted compound/control and 130 μl of HBSS and mixing 6-10 times with a multichannel pipette. 10 μl of samples were then collected form the basal compartments of the B→A wells for TO into the Quench Plates (shallow polypropylene plate, leaving 250 μl in each well). The basal assay plates were then placed into the incubator until use. The Caco-2 plate was placed in the hood and the apical section was lifted and placed onto an empty basal plate. 85 μl of the Caco-2 media was removed from the apical compartments containing 115 μl of cell culture media and replaced with 85 μl of fresh transport media. This was repeated twice for a total of 3 washes. 52.5 μl of buffer was then removed from the apical wells of the Caco-2 ready plates (leaving 62.5 μl buffer in the wells) and replaced with 62.5 of the diluted compound or control for the A→B wells or 52.5 μl of fresh transport buffer for the B→A wells. The total volume in the apical wells was assumed to be 125 μl for A→B and 115 μl for B→A. The apical wells were gently mixed 2-3 times with a multichannel pipette set to 50 μl and 10 μl of sample was collected from the apical compartments of A→B wells for TO into the TO Quench plates (shallow polypropylene plate). The total volume in all apical wells was 115 μl. The basal plate was removed from the incubator and transferred to the apical section of the basal plate and returned to the incubator. The TO samples were then diluted with 40 μl of transport buffer and 100 μl of quench solution was added. The cells were then kept cold. At T 2 hrs, 10 μl of sample was collected from all apical compartments and B→A basal compartments. 50 μl of sample was collected from the A→B compartments. The collected 10 μl of sample was then diluted with 40 μl of transport buffer. 100 μl of quench solution was then added to all T 2 hrs samples. After mixing, 50 μl of all TO and T 2 hrs samples were transferred to sample plates and diluted with 100 μl MilliQ water for bioanalysis. Final TEER measurements were taken after the completion of the assay.

Caco-2 cells = test: Caco-2 permeability; assay type: in vitro ADME
Procedure: as §1, §2, §3

SMILES	IC50 (GM-CSF induced pSTAT5)	Brain Kpu, u [1]	Papp A→B at 2 h (Caco-2 permeability)	efflux ratio at 2 h (Caco-2 permeability)	Caco-2 Papp, A-B (Caco-2 cells)
C[C@@H](c1ccc(Nc2cc(Nc3ncccc3S(C)(=O)=O)ncn2)nc1)N1CC2(COC2)C1 [Compound 1, (S)—N^4-(5-(1-(2-oxa-6-azaspiro[3.3]heptan-6-yl)ethyl)pyridin-2-yl)-N^6-(3-(methylsulfonyl)pyridin-2-yl)pyrimidine-4,6-diamine]	4 to 10 µM	†† (†† 0.1-0.2 u)	~6.02 ×10⁻⁶ cm/s	1.38	6.02 ×10⁻⁶ cm/s
C[C@@H](c1ccc(Nc2cc(Nc3ncc(F)cc3S(C)(=O)=O)ncn2)nc1)N1CC2(COC2)C1 [Compound 2, (S)—N^4-(5-(1-(2-oxa-6-azaspiro[3.3]heptan-6-yl)ethyl)pyridin-2-yl)-N^6-(5-fluoro-3-(methylsulfonyl)pyridin-2-yl)pyrimidine-4,6-diamine]	> 10 µM	† († <0.1 u)	~7.2 ×10⁻⁶ cm/s	2.2	7.51 ×10⁻⁶ cm/s

Source: patent US20260048051A1, “TREATMENT OF INFLAMMATORY BOWEL DISEASE” (Atomwise Inc., priority 2024, published 2026)
